Measured values published in patent US20230114123A1, “METHOD OF STIMULATING ASYMMETRIC DIVISION OF SATELLITE STEM CELLS” (Ottawa Hospital Research Institute, priority 2017, published 2023).

Legend:
Format in all cases: cell-based, mouse
[1] = system: satellite cell divisions; experiment: FDB myofiber screening method validation (YFP(-) divisions); details: for percentage of YFP(-) divisions that were symmetric divisions: control 62% (Wnt7a experiment), control 45% (EGF / PTP1b experiment); for percentage of YFP(-) divisions that were asymmetric divisions: control treated cells 55%
Description: EGFR pathway activators may be identified in a method of screening potential activators. The method includes visualizing isolated, cultured, and stained Flexor Digitorum Brevis (FDB) myofibers from Myf5-Cre/ROSA26-YFP mice in a plurality of Z-stack planes to create a projection image. Muscle satellite cells are identified in the projection image based on Pax7 expression. Of the identified muscle satellite cells: (i) satellite stem cells are identified based on the absence of YFP expression, and (ii) committed satellite progenitor cells are identified based on yellow fluorescence protein (YFP) expression. A potential EGFR pathway activator is administered to the FDB myofibers. The number of symmetric divisions of satellite myogenic cells, identified by the production of two YFP(+) satellite cells, are counted; the number of symmetric satellite stem cell divisions, identified by the production of two YFP(−) satellite cells, are counted; and the number of asymmetric satellite cell divisions, identified by the production of one YFP(+) and one YFP(−) satellite cell, are counted. The potential EGFR pathway activator is identified as an EGFR pathway activator when the percent of YFP(−) divisions that are asymmetric divisions is greater than the corresponding percent in a control sample. The expression “YFP(−) divisions” refers to all cell divisions where one of the daughter cells is YFP(−).
Identification of EGFR pathway activators. Flexor Digitorum brevis (FDB) fibers were isolated from Myf5-Cre/Rosa-YFP mice and digested in 0.25% Collagenase Type I (Sigma) in DMEM (Dulbecco's modified Eagle's medium; high glucose, L-glutamine with 110 mg/ml sodium pyruvate) for 2.5-3 h. Myofibers were dissociated using gentle trituration with a glass pipette.
Myofibers are cultured at 37° C., 5% CO2 for 42 h in myofiber culture media (DMEM supplemented with 20% FBS(Wisent), 1% Chicken Embryo extract (MP Biomediacals), 1% Penicillin/Streptomycin (Cederlane) and 2.5 ng/ml basic Fibroblast Growth Factor (Cedarlane).
Myofibers are first fixed in 2% Paraformaldehyde (PFA) for 5 mins. Myofibers are blocked for 1-2 h in 1% Bovine Serum Albumin, 0.5% TritonX-100, 5% HS and 0.01% Sodium Azide. Primary antibodies are applied in blocking solution for 2 h at room temperature or at 4° C. overnight. Myofibers are washed with PBS and stained with appropriate fluorescently labeled secondary antibodies (Alexa Fluor 488, 546) for 1 hat room temperature. Following washing with PBS, fiber nuclei are stained with DAPI for 5 min. The following antibodies are used: mouse anti-Pax7 (Developmental Studies Hybridoma Bank (DSHB)), chicken anti-GFP (cat. no. ab13970, Abcam).
Satellite cells are focused based on Channel 3 (DAPI) staining. Autofocus is performed by sampling seven (7) z-stacks taken at […] intervals for an extended depth of field of 85.3 μm.
Z-stack images were consolidated to create a projection image with all satellite cells in focus. Image acquisition of a projection image for analysis was created from seven (7) Z-stack images taken at 6.5 μm intervals, for an extended depth of field of 45.5 μm at 200 (Objective 20×) magnification. The projection direction was centered, where the median stacks fall within the center of each myofiber. […]
Potential satellite cells were first identified based on Channel 1 (Pax7) signal, and separated from other satellite cells based on intensity of fluorescence between cells. […]

[2] = system: dystrophin-deficient satellite stem cells; experiment: EDL myofiber culture, satellite stem cell divisions (mdx Myf5-Cre/R26R-eYFP); details: for Average number of asymmetric divisons/fiber / Proportion of YFP- divisions that are asymmetric divisions: mdx myofibers, 42 h of culture
Protocol: (§1) EDL fiber Culture and siRNA Transfection. Myofiber culture was performed as described in Dumont, N. A., et al. “Dystrophin expression in muscle stem cells regulates their polarity and asymmetric division.” Nat. Med. (2015) 21:1455-63, which is incorporated herein by reference. Briefly, EDL were carefully dissected and incubated in DMEM with 2% L-glutamine, 4.5% glucose, and 110 mg/mL sodium pyruvate (Gibco) containing 0.2% collagenase I (Sigma) for 45 min. Myofibers were isolated using gentle trituration with a glass pipet. Myofibers were cultured for 36, 42, or 72 h in DMEM containing 20% FBS (Wisent), 1% chick embryo extract (MP Biomedicals), and 2.5 ng/ml bFGF (Cedarlane). For pharmacological inhibition, Lapatinib ditosylate (1 mM in DMSO; Santa
(§2) Cruz Biotechnology), PTP1b inhibitor CAS 765317-72-4 (10 mM in DMSO; Santa Cruz Biotechnologies) was added to the culture medium for a final concentration of 1 μM or 10 μM, respectively; equal dilution of DMSO was used as vehicle control.

[3] = system: satellite stem cells; experiment: EDL myofiber culture, satellite stem cell divisions (Myf5-Cre/R26R-eYFP, wild type); details: for Average number of asymmetric divisons/fiber / Proportion of YFP- divisions that are asymmetric divisions: WT myofibers, 42 h of culture
Protocol: EGFR Signaling Regulates Asymmetric Satellite Stem Cell Divisions. To assess the role of EGFR in asymmetric division, the inventors cultured satellite cells in myofibers isolated from Extensor digitorum longus (EDL) muscles from Myf5-Cre/R26R-eYFP mice and performed both loss-of-function and gain-of-function experiments. Isolated myofibers were first cultured for 42 h with and without treatment with the Lapatinib, a specific inhibitor of EGFR signaling.
as §1, §2
Transfection of satellite cells on myofibers was performed using lipofectamine RNAimax (Life Technologies) and validated Smartpool siRNAs for EGFR, Aurka, or scramble (SCR) (Dharmacon). Two transfections were performed at 4 h and 16 h after isolation of the myofibers as described in Le Grand, et al. (2009) Wnt7a activates the planar cell polarity pathway to drive the symmetric expansion of satellite stem cells. Cell Stem Cell 4, pp 535-547, which is incorporated herein by reference. Knockdown efficiencies of the siRNA were validated in myoblasts by western blot and qRT-PCR.

[4] = 42 h culture, recombinant EGF vs vehicle, FIG. 4A

In the case of `CCc1oc2cc(S(=O)(=O)Nc3ccc(S(=O)(=O)Nc4nccs4)cc3)ccc2c1C(=O)c1cc(Br)c(O)c(Br)c1` [PTP1b inhibitor, 3-(3,5-dibromo-4-hydroxy-benzoyl)-2-ethyl-benzofuran-6-sulfonicacid-(4-(thiazol-2-ylsulfamyl)-phenyl)-amide, reference compound], the “percentage of YFP(-) divisions that were symmetric divisions” value [1] is reported as 33%, the “percentage of YFP(-) divisions that were asymmetric divisions” value [1] is reported as 67% and the “Average number of asymmetric divisons/fiber” value [2] is reported as 0.463. For the same molecule, the “Proportion of YFP- divisions that are asymmetric divisions” value (shortened to “Proportion”) [2] was 33.33%, the “Average number of asymmetric divisons/fiber” value [3] was 0.988 and the “Proportion” value [3] was 66.70%.

For “EGF: human recombinant EGF protein (Life Technologies), direct activator of the EGFR pathway”, the “percentage of YFP(-) divisions that were symmetric divisions” value [1] was 29%, the “percentage of YFP(-) divisions that were asymmetric divisions” value [1] was 71% and the “increase in the rate of asymmetric division, mdx satellite cells” value [2, 4] was 67%. For the same molecule, the “increase in the absolute number of asymmetric satellite stem cell divisions, mdx” value ([2]; 42 h of myofiber culture, FIG. 4B) was 2 fold, the “Average number of asymmetric divisons/fiber” value [2] was 0.436 and the “Proportion” value [2] was 34.60%. The “increase in the rate of asymmetric satellite stem cell division” value ([3]; 42 h culture, recombinant EGF 100 ng/mL vs vehicle, FIG. 2A) was 2.5 fold, the “increase in asymmetric division, WT satellite cells” value [3, 4] was 29% and the “Average number of asymmetric divisons/fiber” value [3] was 0.939. The “Proportion” value [3] was 70.86%.
